From patent publication US10738013B2, “Eluxadoline crystalline forms and processes for their preparation” (priority 2017, dated 2020)

How the values were obtained:
Dissolution test = type: physicochemical; conditions: 50 mM phosphate buffer pH=7.4, 37° C., 110 rpm
Method: Dissolution tests were performed by means of Sotax AT7 Smart equipped with 6×800 mL volume vessels and using a 50 mM phosphate buffer pH=7.4, previously heated to 37° C. 20 mg of the sample to be tested were placed in each vessel, and stirred (with paddles) at 110 rpm for 60 minutes at 37±0.2° C. Aliquots were taken at 5, 10, 20, 30, 45 and 60 min, filtered through 0.45 μm Chromafil Xtra RC 45/25 syringe filter and analysed by UV/VIS spectrometer Perkin Elmer Lambda 35, 1 cm quartz cell (absorbance at 203 nm). pH was determined using a Mettler Toledo pH Meter FE20 equipped with a InLab®420 electrode.
A portion of the product was subjected to a dissolution test in 50 mM phosphate buffer at pH=7.4 giving the results summarised below: […]

[1] = Thermal (polymorphic) stability at 120° C. by XRPD; type: physicochemical; conditions: maintained at 120° C. for 24 or 48 hours, cooled to room temperature
Method: By “polymorphically stable” it is meant that the crystalline Form α′ of the present invention when stored under stressed conditions i.e., up to a temperature of 120° C. for 24 or 48 hours, show no signs of crystallinity associated to other polymorphs of eluxadoline (e.g. Form β) as judged by the absence of their relevant peaks in an X-ray powder diffractogram (XRPD).
Analyses were performed on a Bruker AXS D8 Advance diffractometer (40 kV, 40 mA, λ=1.5418 Å), equipped with a linear Lynxeye position sensitive detector, set at 300 mm from the sample (Ni-filtered Cu-Kα1,2 radiation). Data collection was made in coupled mode and in theta-theta configuration, in the 3-30° 2-theta, sampling with a 0.02° step scan. Samples were gently ground in an agate mortar, and then deposited in the 0.2 mm-deep hollow of a silicon monocrystal zero background plate.
The polymorphically and chemically stable form α′ of eluxadoline, prepared as described in Examples 10 to 12, were maintained at 120° C. for 24 or 48 hours.

COc1ccc(CN(C(=O)[C@@H](N)Cc2c(C)cc(C(N)=O)cc2C)[C@@H](C)c2nc(-c3ccccc3)c[nH]2)cc1C(=O)O [form α′, 5-({[(2S)-2-amino-3-(4-carbamoyl-2,6-dimethylphenyl)propanoyl][(1S)-1-(4-phenyl-1H-imidazol-2-yl)ethyl]amino}methyl)-2-methoxybenzoic acid]
% dissolved (Dissolution test; 5 min): 6.06% | % dissolved (Dissolution test; 10 min): 13.93% | % dissolved (Dissolution test; 20 min): 17.81% | % dissolved (Dissolution test; 30 min): 27.87% | % dissolved (Dissolution test; 45 min): 38.40% | % dissolved (Dissolution test; 60 min): 60.17% | XRPD after thermal stress (polymorphic stability) [1]: XRPD spectrum corresponding to the one obtained in example 10
